PubChem BioAssay (NCI)
≈ marks a conversion by molar mass, not a printed value. Where “and” joins values, the source holds several entries; their conditions need not be identical. Equal entries are not always repeated.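 A five-concentration, 48-hour dose response in 96-well plates underlies each endpoint, interpolated linearly between surrounding concentrations. Here, GI50 denotes the concentration required for 50% inhibition of growth. TGI marks complete inhibition of growth.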

Tests used:
Test in all cases: NCI-60 cell line screen, 48 h
[1] = tested on: IGROV1 ovarian
[2] = tested on: NCI-H522 lung
[3] = tested on: NCI-H23 lung
[4] = tested on: SK-MEL-5 melanoma
[5] = tested on: K-562 leukemia
[6] = tested on: NCI-H226 lung
[7] = tested on: UACC-257 melanoma
[8] = tested on: NCI/ADR-RES ovarian
[9] = tested on: EKVX NSCLC
[10] = tested on: DU-145 prostate

SMILES	TGI [1]	TGI [2]	TGI [3]	TGI [4]	TGI [5]	TGI [6]	TGI [7]	GI50 [1]	GI50 [8] [ng/mL]	TGI [8] [ng/mL]	GI50 [2]	GI50 [3] [ng/mL]	GI50 [4]	GI50 [9]	TGI [9]	GI50 [7]	TGI [10] [µM]	GI50 [5] [µM]	GI50 [6] [µM]
Cc1ccccc1N1C(=O)/C(=C/c2ccc(N(CCC#N)CCC#N)cc2)N=C1c1cc([N+](=O)[O-])ccc1Cl	> 100 µM	> 100 µM	> 100 µM	> 100 µM	> 100 µM	> 100 µM	> 100 µM	–	–	–	–	–	–	–	–	–	–	–	–
OCCN1CN(CCO)CN(c2nc(N3CN(CCO)CN(CCO)C3)nc(N3CN(CCO)CN(CCO)C3)n2)C1	4.61 ng/mL	2.91 ng/mL	4.39 ng/mL	1.74 ng/mL	–	0.63 ng/mL	3.14 ng/mL	1.55 ng/mL	0.867 (≈ 1.44 nM)	3.98 (≈ 6.63 nM)	1.04 ng/mL	1.42 (≈ 2.36 nM)	0.891 ng/mL	1.16 ng/mL	2.87 ng/mL	1.42 ng/mL	–	–	–
CC1OC(n2cc(F)c(=O)[nH]c2=O)C=CC1O (stereo unspecified)	> 100 µM	> 100 µM	> 100 µM	> 100 µM	> 100 µM	> 100 µM	> 100 µM	–	–	–	–	–	–	–	> 100 µM	–	–	–	–
O=S(O)CCCCSSCC(O)C(O)CSSCCCCS(=O)O (stereo unspecified)	> 100 µM	20 µM and 30.4 µM	42.3 µM and > 100 µM	18.1 µM and 26 µM	60.6 µM and > 100 µM	–	21.6 µM and 26.7 µM	–	–	–	6.48 µM and 13 µM	–	4.97 µM and 11.2 µM	–	> 100 µM and 93.1 µM	–	–	–	–
CCOP(=O)(Cc1ccc(CP(=O)(OCC)OCC)n1C)OCC	> 100 µM	> 100 µM	> 100 µM	> 100 µM	> 100 µM	–	> 100 µM	–	–	–	–	–	–	–	> 100 µM	–	–	–	–
Cc1ccc(S(=O)(=O)NCC2CCCCC2=O)cc1 (stereo unspecified)	> 100 µM	> 100 µM	> 100 µM	> 100 µM	> 100 µM	> 100 µM	57.7 µM	–	–	–	–	–	–	–	> 100 µM	–	–	–	–
CCN(CC)CCOc1ccc(/C=C(\C#N)c2ccc(OCCN(CC)CC)cc2)cc1	> 52.4 µM	24.9 µM	42.6 µM	15.9 µM	23.5 µM	> 78.4 µM	31.3 µM	–	–	–	–	–	–	–	> 80.6 µM	–	> 100	–	–
CC1=Nc2ccccc2C1C(Cc1ccccc1N)c1c(C)[nH]c2ccccc12 (stereo unspecified)	36 µM	31.6 µM	33.6 µM	27.8 µM	43.2 µM	32.9 µM	32.4 µM	–	–	–	–	–	–	–	37.7 µM	–	–	–	–
COc1ccc(OC)c(NC(=O)C(=O)NNC(=O)c2sc(NNC(C)=O)nc2C)c1	> 100 µM	44.3 µM	68.8 µM	> 100 µM	43.1 µM	> 100 µM	61.5 µM	–	–	–	–	–	–	–	> 100 µM	–	–	–	–
C=C(CCCCC)CN1CCCC1[C@@](C)(O)CC(=O)OCC (stereo partly specified)	> 100 µM	> 100 µM	> 100 µM	> 100 µM	> 100 µM	> 100 µM	> 100 µM	–	–	–	–	–	–	–	> 100 µM	–	–	–	–
CCCCN(CCCC)CC(C(=O)Nc1ccc([N+](=O)[O-])cc1[N+](=O)[O-])/C(C)=N\NC(=S)NN (stereo unspecified)	> 100 µM	65.4 µM	> 100 µM	> 100 µM	> 100 µM	> 100 µM	> 100 µM	–	–	–	–	–	–	–	> 100 µM	–	–	–	–
COC(=O)C1=C(C)N(NC(=O)c2ccccc2)C(C)(O)C12CCOC2=O (stereo unspecified)	> 100 µM	> 100 µM	> 100 µM	–	> 100 µM	> 100 µM	> 100 µM	–	–	–	–	–	–	–	> 100 µM	–	–	–	–
O=C(O)CNc1cc(-c2ccccc2)nc(NCC(=O)O)n1	> 100 µM	> 100 µM	> 100 µM	> 100 µM	> 100 µM	> 100 µM	> 100 µM	–	–	–	–	–	–	–	> 100 µM	–	–	–	–
CC1=CC(/C=C(\C)CCCc2ccoc2)C2(OC(=O)C(C)=C2O)[C@H]2C1CC[C@@H]2C (stereo partly specified)	> 100 µM	31.2 µM	67.2 µM	46.4 µM	> 100 µM	54.6 µM	> 100 µM	–	–	–	–	–	–	–	> 100 µM	–	–	–	–
COC(=O)C1=C(c2ccc3c(c2)OCO3)O[C@H](c2cc(OC)c(OC)c(OC)c2)[C@H]1COC(C)=O	81 µM	–	17.7 µM	7.83 µM	> 100 µM	> 100 µM	56 µM	–	–	–	–	–	–	–	> 100 µM	–	–	–	–
O=C1CN=C(C[N+](=O)[O-])c2ccccc21	> 100 µM	> 100 µM	> 100 µM	> 100 µM	> 100 µM	> 100 µM	> 100 µM	–	–	–	–	–	–	–	> 100 µM	–	–	–	–
CC(=O)O.CC(=O)O.CC(=O)O.CC(=O)O.CC(=O)O.CC(=O)O.O.[Ti].[Ti]	> 100 µM	> 100 µM	–	> 100 µM	> 100 µM	> 100 µM	> 100 µM	> 100 µM	–	–	> 100 µM	–	> 100 µM	> 100 µM	> 100 µM	> 100 µM	–	> 100	> 100
CC(C)(C)OC(=O)NCC(=O)OCc1ccccc1	> 100 µM	–	> 100 µM	–	> 100 µM	–	> 100 µM	–	–	–	–	–	–	–	–	–	–	–	–
